Laboratory results from patent publication US11656224B2, “Multivalent glycan microarray platform” (Z Biotech, LLC, priority 2016, dated 2023).

Experiments:
[1] = biological target: T1, peanut agglutinin (PNA) lectin (Arachis hypogaea, UniProt P02872); experiment: PNA lectin binding to glycan array on polystyrene polymer slides; settings: PNA 10 μg/ml, PAMAM G3 NHS, Cy5 labeled streptavidin
T1 sequence (P02872 24-273): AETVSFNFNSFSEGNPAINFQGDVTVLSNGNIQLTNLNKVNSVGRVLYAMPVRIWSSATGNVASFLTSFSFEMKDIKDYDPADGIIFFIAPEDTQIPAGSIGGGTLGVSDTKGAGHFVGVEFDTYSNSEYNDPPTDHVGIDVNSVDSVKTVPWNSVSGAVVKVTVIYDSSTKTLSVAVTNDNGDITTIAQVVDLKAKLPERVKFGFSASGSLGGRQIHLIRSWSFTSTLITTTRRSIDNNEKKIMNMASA
Source text: (§1) (PAMAM) dendrimer generation 3 functionalized with N-hydroxysuccinimide (NHS) groups (Example 5). The glycan array was fabricated same as described in Example 7. Biotinylated lectins (e.g., SBA, FIG. 7; PNA, FIG. 8; and ConA, FIG. 9) were used for examine the binding on the glycan array by detection with a Cy5 labeled streptavidin.

[2] = biological target: T2, Soybean agglutinins (SBA) lectin (Glycine max, UniProt P05046); experiment: SBA lectin binding to O-mucin glycan microarray (NHS PAMAM G2 glass slide); settings: SBA 1 μg/ml; O-mucin glycan microarray on glass; Cy3 labeled streptavidin
Protocol: For this purpose, a library containing 12 glycan probes representing 0-GalNAc glycan structures in mucin (Table 2) was immobilized onto a glass slide coated with PAMAM dendrimer (generation 2) terminated with NHS functional groups (Example 1). Each glycan was dissolved in a Print Buffer containing 150 mM sodium phosphate, (pH 8.5) with 100 μM concentration and printed onto the slides using ˜1 nL probe. The printing process was performed in 60% relative humidity. After printing the glycan immobilization can be enhanced by incubation at room temperature for 12 hours in 60% relative humidity.
The carbohydrate-protein interaction can be investigated by interrogating the microarray with lectins or glycan-binding proteins. In detail, first the arrayed slides were briefly rinsed in MilliQ water and then affixed into an assay chamber. The arrays were treated with a blocking buffer, such as 25 mM ethanolamine in 100 mM boric acid, 0.01% Tween 20 (pH 8.5). A biotinylated lectin (e.g., Helix pomatia Agglutinin (HPA)) or a glycan-binding protein dissolved in an Assay Buffer was subjected to the array for incubation. The Assay Buffer could be 20 mM Tris-HCl, 150 mM NaCl, 0.05% Tween 20, 1 mM CaCl2), 1 mM MgCl2, 1% BSA (pH 7.6). The protein-carbohydrate binding was detected by applying a Cy3 labeled streptavidin. The binding intensities—relative fluorescence units (RFU)—were quantified by using a fluorescence-based microarray scanner (FIG. 6).

[3] = biological target: T2, Soybean agglutinins (SBA) lectin; experiment: SBA lectin binding to glycan array on polystyrene polymer slides; settings: SBA 10 μg/ml, PAMAM G3 NHS, Cy5 labeled streptavidin
Source text: as §1

[4] = system: HIV broadly neutralizing antibody 2G12; experiment: 2G12 antibody binding to high-mannose N-glycans on hydrazide substrate with or without aniline; settings: aniline-coated substrate
Source text: 2G12 is pre-complexed with Cy3 labeled anti-Human IgG (1:4 ratio). […] 2G12 is pre-complexed with Cy3 labeled anti-Human IgG (1:4 ratio). […] CD15 antibody is detected with Alexa Fluor 555-labeled anti-mouse IgM secondary antibody. […] The aniline can serve as a catalyst to increase aldehyde-hydrazide coupling efficiency, thus enhance the immobilization capability for glycans containing free reducing-end. The use of aniline as a nucleophilic catalyst accelerates bond formation through a Schiff base intermediate (mechanism in FIG. 4D).

T2 sequence (P05046 33-285): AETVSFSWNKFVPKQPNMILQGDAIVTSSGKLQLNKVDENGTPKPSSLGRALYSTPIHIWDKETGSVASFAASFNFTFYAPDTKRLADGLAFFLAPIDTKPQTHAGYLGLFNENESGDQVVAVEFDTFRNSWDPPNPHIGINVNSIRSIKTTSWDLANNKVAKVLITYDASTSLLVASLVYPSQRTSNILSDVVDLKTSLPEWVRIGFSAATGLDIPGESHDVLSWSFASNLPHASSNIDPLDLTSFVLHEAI

CC(=O)NC1C(OCC(N)C(=O)O)OC(CO)C(O)C1OC1OC(CO)C(O)C(O)C1O (stereo not drawn) [T-Ser, Galβ1-3GalNAcα1-Ser]
binding to PNA lectin [1]: specific binding

CC(=O)NC1C(OC(C)C(N)C(=O)O)OC(CO)C(O)C1OC1OC(CO)C(O)C(O)C1O (stereo not drawn) [T-Thr, Galβ1-3GalNAcα1-Thr]
binding to PNA lectin [1]: specific binding

CC(=O)N[C@H]1[C@@H](OC[C@H](N)C(=O)O)O[C@H](CO)[C@H](O)[C@@H]1O [Tn-Ser, α-GalNAc-Ser]
binding to SBA lectin [2]: specific binding

CC(=O)N[C@H]1[C@@H](O[C@H](C)[C@H](N)C(=O)O)O[C@H](CO)[C@H](O)[C@@H]1O [Tn-Thr, α-GalNAc-Thr]
binding to SBA lectin [2]: specific binding
binding to SBA lectin [3]: specific binding

H2N-APGST*APP-NH2 (*α-GalNAc)
binding to SBA lectin [2]: specific binding
binding to SBA lectin [3]: specific binding

H2N-TSAPDT*RPAP-NH2 (*α-GalNAc)
binding to SBA lectin [2]: specific binding

[Manα1-2] [Manα1-2] Manα1-6(Manα1-3)Manα1-6(Manα1-2Manα1-3)Manβ1-4GlcNAcβ1-4GlcNAc-(3 isomers) [Glycan 90]
binding to 2G12 antibody [4]: specific binding
